Measurements taken from BindingDB's records for doi:10.1021/cb700200w (Novartis, 2008).

target: T1, Aurora kinase A (Homo sapiens, UniProt O14965); assay: Aurora Kinase SPA Assay; conditions: not given
T1 sequence (O14965 whole entry): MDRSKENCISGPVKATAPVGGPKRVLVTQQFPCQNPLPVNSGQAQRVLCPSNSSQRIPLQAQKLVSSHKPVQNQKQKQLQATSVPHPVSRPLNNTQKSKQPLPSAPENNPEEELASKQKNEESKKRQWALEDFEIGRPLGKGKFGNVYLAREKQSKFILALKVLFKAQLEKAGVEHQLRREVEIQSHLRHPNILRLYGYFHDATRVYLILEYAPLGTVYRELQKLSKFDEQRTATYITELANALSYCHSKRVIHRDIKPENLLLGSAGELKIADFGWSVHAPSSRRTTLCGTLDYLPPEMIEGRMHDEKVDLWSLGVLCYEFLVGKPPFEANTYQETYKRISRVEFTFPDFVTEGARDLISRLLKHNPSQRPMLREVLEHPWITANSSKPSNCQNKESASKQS
Protocol: The biochemical activity of compounds was determined by incubation with Aurora A and substrates in the presence ATP/[gamma-33P] ATP. After incubation, the reaction was stopped and the phosphorylated substrate was separated from nonincorporated radioactive ATP using SPA beads (Amersham Pharmacia Biotech), counted using TopCount (Packard) to measure substrate-incorporated phosphate.

**Q.** How did the IC50 turn out when `FC(F)(F)c1cc(Nc2ncc(Br)s2)cc(C(F)(F)F)c1` [N-[3,5-bis(trifluoromethyl)phenyl]-5-bromo-1,3-thiazol-2-amine] was run?
**A.** > 10000 nM

**Q.** How did the IC50 turn out when `Clc1cc(Cl)cc(Nc2ncc(Br)s2)c1` [5-bromo-N-(3,5-dichlorophenyl)-1,3-thiazol-2-amine] was run?
**A.** > 10000 nM

**Q.** With `COc1cccc(Nc2ncc(Br)s2)c1` [5-bromo-N-(3-methoxyphenyl)-1,3-thiazol-2-amine] as the compound, how does the IC50 read?
**A.** 900 nM

**Q.** For `Fc1ccccc1Nc1ncc(Br)s1` [5-bromo-N-(2-fluorophenyl)-1,3-thiazol-2-amine], which IC50 is on record?
**A.** 5500 nM

**Q.** `N#Cc1cnc(Nc2ccccn2)s1` [ACS Chemical Biology 3180 Compound 63] was tested. Which IC50 did it give?
**A.** 2500 nM

**Q.** For `Fc1ccc(Nc2ncc(Br)s2)c(F)c1` [5-bromo-N-(2,4-difluorophenyl)-1,3-thiazol-2-amine], which IC50 is on record?
**A.** > 10000 nM

**Q.** With `Cc1cccc(Nc2ncc(Br)s2)c1` [5-bromo-N-(3-methylphenyl)-1,3-thiazol-2-amine] as the compound, how does the IC50 read?
**A.** 1100 nM

**Q.** How did the IC50 turn out when `Fc1ccc(F)c(Nc2ncc(Br)s2)c1` [5-bromo-N-(2,5-difluorophenyl)-1,3-thiazol-2-amine] was run?
**A.** > 10000 nM

**Q.** `N#Cc1cccc(Nc2ncc(Br)s2)c1` [3-[(5-bromo-1,3-thiazol-2-yl)amino]benzonitrile] was tested. Which IC50 did it give?
**A.** 1500 nM

**Q.** For `Brc1cnc(Nc2ccccn2)s1` [5-bromo-N-(pyridin-2-yl)-1,3-thiazol-2-amine], which IC50 is on record?
**A.** 2000 nM

**Q.** For `Brc1cnc(Nc2cccc3ccccc23)s1` [5-bromo-N-(naphthalen-1-yl)-1,3-thiazol-2-amine], which IC50 is on record?
**A.** 5000 nM

**Q.** With `CCOC(=O)c1cccc(Nc2ncc(Br)s2)c1` [ethyl 3-[(5-bromo-1,3-thiazol-2-yl)amino]benzoate] as the compound, how does the IC50 read?
**A.** 2250 nM

**Q.** For `CCN1CCN(Cc2ccc(Nc3ncc(C#N)s3)nc2)CC1` [2-({5-[(4-ethylpiperazin-1-yl)methyl]pyridin-2-yl}amino)-1,3-thiazole-5-carbonitrile], which IC50 is on record?
**A.** 4400 nM

**Q.** Which IC50 does the source give for `CSc1cccc(Nc2ncc(Br)s2)c1` [5-bromo-N-[3-(methylsulfanyl)phenyl]-1,3-thiazol-2-amine] here?
**A.** 500 nM

**Q.** How did the IC50 turn out when `O=C(O)c1cccc(Nc2ncc(Br)s2)c1` [3-[(5-bromo-1,3-thiazol-2-yl)amino]benzoic acid] was run?
**A.** 440 nM

**Q.** How did the IC50 turn out when `Fc1cccc(Nc2ncc(Br)s2)c1` [5-bromo-N-(3-fluorophenyl)-1,3-thiazol-2-amine] was run?
**A.** 9300 nM

**Q.** Which IC50 does the source give for `COCCNC(=O)c1cccc(Nc2ncc(Br)s2)c1` [3-[(5-bromo-1,3-thiazol-2-yl)amino]-N-(2-methoxyethyl)benzamide] here?
**A.** 1220 nM

**Q.** `O=C(NCCN1CCOCC1)c1ccc(Nc2ncc(Br)s2)cc1` [4-[(5-bromo-1,3-thiazol-2-yl)amino]-N-[2-(morpholin-4-yl)ethyl]benzamide] was tested. Which IC50 did it give?
**A.** 2300 nM

**Q.** With `Clc1ccc(Nc2ncc(Br)s2)cc1Cl` [5-bromo-N-(3,4-dichlorophenyl)-1,3-thiazol-2-amine] as the compound, how does the IC50 read?
**A.** > 10000 nM

**Q.** With `O=C(NCCN1CCCC1)c1ccc(Nc2ncc(Br)s2)cc1` [4-[(5-bromo-1,3-thiazol-2-yl)amino]-N-[2-(pyrrolidin-1-yl)ethyl]benzamide] as the compound, how does the IC50 read?
**A.** 5320 nM

**Q.** `O=C(Nc1ccccc1)Nc1ncc(Br)s1` [3-(5-bromo-1,3-thiazol-2-yl)-1-phenylurea] was tested. Which IC50 did it give?
**A.** > 10000 nM

**Q.** How did the IC50 turn out when `CCN(CC)CCNC(=O)c1ccc(Nc2ncc(Br)s2)cc1` [4-[(5-bromo-1,3-thiazol-2-yl)amino]-N-[2-(diethylamino)ethyl]benzamide] was run?
**A.** 4520 nM

**Q.** `Brc1cnc(Nc2ccncc2)s1` [5-bromo-N-(pyridin-4-yl)-1,3-thiazol-2-amine] was tested. Which IC50 did it give?
**A.** 7800 nM

**Q.** For `CC(=O)Nc1ncc(Br)s1` [N-(5-bromo-1,3-thiazol-2-yl)acetamide], which IC50 is on record?
**A.** > 10000 nM

**Q.** `Cc1ccccc1Nc1ncc(Br)s1` [5-bromo-N-(2-methylphenyl)-1,3-thiazol-2-amine] was tested. Which IC50 did it give?
**A.** 3000 nM

**Q.** For `Cc1cc(C)cc(Nc2ncc(Br)s2)c1` [5-bromo-N-(3,5-dimethylphenyl)-1,3-thiazol-2-amine], which IC50 is on record?
**A.** > 10000 nM

**Q.** Which IC50 does the source give for `FC(F)(F)c1cccc(Nc2ncc(Br)s2)c1` [5-bromo-N-[3-(trifluoromethyl)phenyl]-1,3-thiazol-2-amine] here?
**A.** 10000 nM

**Q.** `N#Cc1cnc(Nc2ccc(CN3CCN(CCO)CC3)cn2)s1` [2-[(5-{[4-(2-hydroxyethyl)piperazin-1-yl]methyl}pyridin-2-yl)amino]-1,3-thiazole-5-carbonitrile] was tested. Which IC50 did it give?
**A.** 5400 nM

**Q.** For `CN(C)CCNC(=O)c1ccc(Nc2ncc(Br)s2)cc1` [4-[(5-bromo-1,3-thiazol-2-yl)amino]-N-[2-(dimethylamino)ethyl]benzamide], which IC50 is on record?
**A.** 5250 nM

same assay, conditions: pH 7; 22 °C

**Q.** For `O=C(Nc1ccc(Nc2ncc(Br)s2)cc1)c1ccccc1` [N-{4-[(5-bromo-1,3-thiazol-2-yl)amino]phenyl}benzamide], which IC50 is on record?
**A.** 9200 nM

**Q.** With `Oc1ccc(Nc2ncc(Br)s2)cc1` [4-[(5-bromo-1,3-thiazol-2-yl)amino]phenol] as the compound, how does the IC50 read?
**A.** 510 nM

**Q.** Which IC50 does the source give for `Cc1ccc(Nc2ncc(Br)s2)cc1` [5-bromo-N-(4-methylphenyl)-1,3-thiazol-2-amine] here?
**A.** 2840 nM

**Q.** `CC(=O)c1ccc(Nc2ncc(Br)s2)cc1` [1-{4-[(5-bromo-1,3-thiazol-2-yl)amino]phenyl}ethan-1-one] was tested. Which IC50 did it give?
**A.** 1700 nM

**Q.** For `Brc1cnc(Nc2ccccc2)s1` [5-bromo-N-phenyl-1,3-thiazol-2-amine], which IC50 is on record?
**A.** 1100 nM

**Q.** How did the IC50 turn out when `CC(=O)Nc1ccc(Nc2ncc(Br)s2)cc1` [N-{4-[(5-bromo-1,3-thiazol-2-yl)amino]phenyl}acetamide] was run?
**A.** 360 nM

**Q.** Which IC50 does the source give for `Fc1ccc(Nc2nccs2)cc1` [N-(4-fluorophenyl)-1,3-thiazol-2-amine] here?
**A.** > 10000 nM

**Q.** `COCCNC(=O)c1ccc(Nc2ncc(Br)s2)cc1` [4-[(5-bromo-1,3-thiazol-2-yl)amino]-N-(2-methoxyethyl)benzamide] was tested. Which IC50 did it give?
**A.** 97 nM

**Q.** Which IC50 does the source give for `CCOC(=O)c1ccc(Nc2ncc(Br)s2)cc1` [ethyl 4-[(5-bromo-1,3-thiazol-2-yl)amino]benzoate] here?
**A.** 5700 nM

**Q.** For `Brc1cnc(Nc2ccc(Oc3ccccc3)cc2)s1` [5-bromo-N-(4-phenoxyphenyl)-1,3-thiazol-2-amine], which IC50 is on record?
**A.** 1400 nM

**Q.** How did the IC50 turn out when `Brc1cnc(Nc2ccc(I)cc2)s1` [5-bromo-N-(4-iodophenyl)-1,3-thiazol-2-amine] was run?
**A.** > 10000 nM

**Q.** With `FC(F)(F)c1ccc(Nc2ncc(Br)s2)cc1` [5-bromo-N-[4-(trifluoromethyl)phenyl]-1,3-thiazol-2-amine] as the compound, how does the IC50 read?
**A.** 2400 nM

**Q.** Which IC50 does the source give for `O=C(NCCO)c1ccc(Nc2ncc(Br)s2)cc1` [4-[(5-bromo-1,3-thiazol-2-yl)amino]-N-(2-hydroxyethyl)benzamide] here?
**A.** 1480 nM

**Q.** With `Clc1ccc(Nc2ncc(Br)s2)cc1` [5-bromo-N-(4-chlorophenyl)-1,3-thiazol-2-amine] as the compound, how does the IC50 read?
**A.** 3000 nM

**Q.** Which IC50 does the source give for `Fc1ccc(Nc2nc(Br)cs2)cc1` [4-bromo-N-(4-fluorophenyl)-1,3-thiazol-2-amine] here?
**A.** > 10000 nM

**Q.** With `FC(F)(F)Oc1ccc(Nc2ncc(Br)s2)cc1` [5-bromo-N-[4-(trifluoromethoxy)phenyl]-1,3-thiazol-2-amine] as the compound, how does the IC50 read?
**A.** 17200 nM

**Q.** How did the IC50 turn out when `Nc1ccc(Nc2ncc(Br)s2)cc1` [1-N-(5-bromo-1,3-thiazol-2-yl)benzene-1,4-diamine] was run?
**A.** 600 nM

**Q.** How did the IC50 turn out when `COCCN(C)C(=O)c1ccc(Nc2ncc(Br)s2)cc1` [4-[(5-bromo-1,3-thiazol-2-yl)amino]-N-(2-methoxyethyl)-N-methylbenzamide] was run?
**A.** 980 nM

**Q.** `Fc1ccc(Nc2ncc(I)s2)cc1` [N-(4-fluorophenyl)-5-iodo-1,3-thiazol-2-amine] was tested. Which IC50 did it give?
**A.** 500 nM

**Q.** For `O=[N+]([O-])c1ccc(Nc2ncc(Br)s2)cc1` [5-bromo-N-(4-nitrophenyl)-1,3-thiazol-2-amine], which IC50 is on record?
**A.** 13000 nM
